Measured values as given in patent US10316050B2, “PT (IV) complexes containing 4,4′-disubstituted-2,2′-bipyridyl and their use in cancer therapy” (THE BOARD OF REGENTS OF THE NEVADA SYSTEM OF HIGHER …, priority 2014, dated 2019).

Key:
[1] = tested on: phosphorylated H2AX (γH2AX) in DU145 cells; assay: Flow cytometry of phosphorylated H2AX, DU145; type: cell-based, human; details: DU145, 10 μM Pt(IV)-4C or 2.5 μM Pt(IV)-5C for 2 hours, analyzed 7 hours post treatment
Experimental: FIG. 9 is a series of graphs plotting Pt(IV) complex-induced phosphorylation of H2AX in A549 cells (top panels) and DU145 cells (bottom panels). A549 cells were treated with control (left), 25 μM Pt(IV)-4C (center), or 7.5 μM Pt(IV)-5C (right) for 6 hours, and analyzed 12 hours post treatment. DU145 cells were treated for 2 hours with control (left), 10 μM Pt(IV)-4C (center), or 2.5 μM Pt(IV)-5C (right), and analyzed 7 hours post treatment. Data are representative of three independent experiments.
Cells (200,000 to 250,000) were seeded in 60 mm dishes and incubated at 37° C. in a humidified, 5% CO2 atmosphere for 2 days to reach ˜50-60% confluence. The cells were treated with the platinum complexes as indicated, the floating cells were collected, and both attached and floating cells were washed 2× with PBS. The cells were resuspended in fresh medium and incubated as indicated. After incubation, both the floating and attached cells were collected and fixed by incubation in 4% formaldehyde for 10 minutes at room temperature. The fixed cells were pelleted and permeabilized by incubation in 500 μL of ice-cold methanol at 4° C. for 10 minutes. The samples were stored at −20° C. until analysis. For analysis, the cells were pelleted and washed 2× with 1% BSA in PBS. […] After washing 2× with 1% BSA, the cells were resuspended in PBS and analyzed on a Becton Dickinson FACS Calibur. […]

DU145 cells = assay: Cell cycle analysis, propidium iodide flow cytometry, DU145; type: cell-based, human; details: DU145, 10 μM Pt(IV)-4C or 2.5 μM Pt(IV)-5C for 1 hour, analyzed 12 hours post treatment
Experimental: FIG. 10 is a series of plots from a cell cycle analysis of A549 cells (top) and DU145 cells (bottom) cells treated with Pt(IV)-4C and Pt(IV)-5C. A549 cells were treated for 5 hours with control (left), 25 μM Pt(IV)-4C (center), or 7.5 μM Pt(IV)-5C (right), and analyzed 12 hours post treatment. DU145 cells were treated for 1 hour with control (left), 10 μM Pt(IV)-4C (center), or 2.5 μM Pt(IV)-5C (right), and analyzed 12 hours post treatment. Data are representative of three independent experiments.
Cells (˜50 to 60% confluent in 60 mm dishes) were treated as indicated with the platinum compound. After treatment, the floating cells were collected, and both attached and floating cells were washed 2× with PBS. The cells were resuspended in fresh medium and incubated as indicated. The cells were harvested (both the floating and attached cells were collected), counted, and pelleted. The cells were then washed two times with 5 mL PBS, fixed by resuspending in 0.1 mL of PBS and 1 mL of ice-cold 95% ethanol with gentle vortexing. Fixed cells were stored at 4° C. until analysis. For analysis, fixed cells were washed once with 1-2 mL of PBS and centrifuged at 500×g for 5 minutes. The cell pellet was resuspended in 100 μL of a 1.0% Triton X-100 buffer solution, and 100 μL of a 1.0 mg/mL RNAse solution was added and allowed to stand at room temperature for 10-15 minutes. […]

Compound	level of phosphorylated H2AX (γH2AX) [1]	effect on the cell cycle / sub-G1 peak (DU145 cells)
CC(=O)[O][Pt]([Cl])([Cl])[O]C(C)=O.CCCCCOc1ccnc(-c2cc(OCCCCC)ccn2)c1 [Pt(IV)-5C, [Pt(IV)Cl2(OAc)2(4,4′-dipentoxy-2,2′-bipyridine)]]	increase of γH2AX	did not affect the cell cycle
[Pt(IV)Cl2(OAc)2(4,4′-dibutoxy-2,2′-bipyridine)] [Pt(IV)-4C]	increase of γH2AX	did not affect the cell cycle
